We go through 6 compounds from PubChem BioAssay (NCI).

Assay in all cases: growth of human tumour cells (NCI), 48 h
The test system of test [1] is DU-145 prostate.
Test [2] has as its system HCC-2998 colon.
The subject of test [3] is MCF7 breast.
Test [4] relates to M14 melanoma.
The test system of test [5] is HCT-15 colon.
In test [6] the test system is CAKI-1 renal.
The subject of test [7] is OVCAR-8 ovarian.
The test system of test [8] is NCI-H23 lung.
The test system of test [9] is NCI-H460 lung.
The test system of test [10] is COLO 205 colon.

“And” between values parts separate entries of the source, which are not always exact repeats. Equal values may be shown once.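 Assay format: 96-well plates, 48-hour exposure. GI50 is the concentration that inhibits growth by half. TGI marks complete inhibition of growth.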 Some results are limits rather than exact numbers.

For `COc1cc2c3c(n(CCNCCCNCCn4c5c(c6cc(OC)c(OC)cc6c4=O)C(=O)c4ccccc4-5)c(=O)c2cc1OC)-c1ccccc1C3=O`, the GI50 is 197 nM in test [1]; 68.5 nM in test [2]; 87.8 nM in [3]; 1380 nM in test [4]; 54200 nM in test [5]; more than 100000 nM in test [6]. Moreover, the GI50 in test [7] was 35.5 nM; in test [8] it was 1200 nM; in [9], 71.9 nM; in test [10], 121 nM. Further, the TGI in [1] is 30800 nM; in test [2], 978 nM; in [3], 2900 nM; in test [4] it was 6520 nM; in [5], more than 100000 nM; in test [6] it was more than 100000 nM. Moreover, the TGI amounted to 5820 nM in test [7], 17000 nM in test [8], 4680 nM in [9] and 1010 nM in [10].
In the case of `CC(C)(C)c1cc(NC(=O)Cc2ccc(-c3cnc4cc(-c5cnn(CCN6CCOCC6)c5)ccc4n3)cc2)no1`, the GI50 is 432 nM and 494 nM and 75.7 nM in [1]; 301 nM and 806 nM and 194 nM in [3]; 202 nM and 370 nM and 41.9 nM in test [4]; 166 nM and 342 nM and 51.7 nM in test [5]; 123 nM and 219 nM and 25.3 nM in test [6]; 481 nM and 507 nM and 121 nM in test [7]. For the same compound, the GI50 in test [8] was 627 nM and 1080 nM and 131 nM; in test [9] it was 181 nM and 320 nM and 45.6 nM; in test [10], 836 nM and 93.1 nM. The TGI in [1] was 50000 nM and > 100000 nM and > 3000 nM; in test [2] it was 50000 nM and > 100000 nM and > 3000 nM; in test [3], 50000 nM and > 100000 nM and > 3000 nM; in [4] it was 50000 nM and > 100000 nM and > 3000 nM; in test [5], 50000 nM and > 100000 nM and > 3000 nM; in test [6], 50000 nM and > 100000 nM and > 3000 nM. In addition, the TGI is 50000 nM and > 100000 nM and > 3000 nM in test [7]; 50000 nM and > 100000 nM and > 3000 nM in [8]; 50000 nM and > 100000 nM and > 3000 nM in [9]; 50000 nM and > 3000 nM in test [10].
With `CCOC(=O)c1c(C)nc2c(c1N)/C(=C/c1ccc(OC)cc1)C(=O)N2Cc1ccc(F)cc1`, the GI50 is 279 nM in [1]; 255 nM in [2]; 195 nM in [3]; 191 nM in test [4]; 127 nM in test [5]; 250 nM in test [6]. For the same compound, the GI50 is 257 nM in [7], 262 nM in [8], 257 nM in test [9] and 146 nM in [10]. For the same compound, the TGI stood at 1120 nM in test [1]; 762 nM in test [2]; 1510 nM in [3]; 443 nM in [4]; 543 nM in [5]; 1310 nM in test [6]. Further, the TGI was found to be 1060 nM in test [7], 1030 nM in test [8], 744 nM in test [9] and 333 nM in [10].
In the case of `COC(=O)[C@H](Cc1c[nH]c2ccccc12)NC(=O)[C@@H](OC)[C@@H]1Cc2cc3cc(OC4CC(OC5CC(O)C(O)C(C)O5)C(O)C(C)O4)c(C)c(O)c3c(O)c2C(=O)[C@H]1OC1CC(OC2CC(OC3CC(C)(O)C(O)C(C)O3)C(O)C(C)O2)C(O)C(C)O1` (some centres undefined), the GI50 in [1] was 7.13 nM; in [2], 6.59 nM; in test [3] it was 3.91 nM; in test [4] it was 16.9 nM; in [5], 441 nM; in test [6], 345 nM. For the same compound, the GI50 in test [7] is 9.7 nM; in test [8] it was 6.14 nM; in test [9], 6.11 nM; in test [10], 3.66 nM. The TGI is more than 16500 nM in test [1]; 38.2 nM in test [2]; 2550 nM in [3]; 127 nM in test [4]; more than 16500 nM in [5]; more than 16500 nM in [6]. Moreover, the TGI in [7] is more than 16500 nM; in test [8], 50.6 nM; in [9] it was more than 5240 nM; in test [10], 8.82 nM.
For `O=C1/C(=C/c2ccc(O)cc2)CSc2ccc(Cl)cc21`, the GI50 in test [1] is 12400 nM; in [2], 13600 nM; in test [3], 651 nM; in [4] it was 10000 nM; in [5], 8310 nM; in test [6], 21200 nM. Besides, the GI50 in [7] is 11100 nM; in test [8], 19300 nM; in test [9] it was 17700 nM; in test [10] it was 15600 nM. Further, the TGI in test [1] came out at 27200 nM; in test [2], 30100 nM; in test [3], 11000 nM; in test [4], 62200 nM; in test [5], 21900 nM; in test [6], 52000 nM. Also, the TGI in test [7] was more than 100000 nM; in [8], 46000 nM; in [9] it was 39200 nM; in test [10] it was 29000 nM.
Take `Clc1ccc(-c2c(C3=NCCCN3)nnn2-c2ccc(Cl)cc2)cc1`: the TGI was more than 100000 nM in [1]; 38300 nM in test [2]; more than 55800 nM in test [3]; 31300 nM in test [4]; more than 100000 nM in test [5]; more than 94100 nM in test [6]. In addition, the TGI in test [7] is more than 88200 nM; in test [8], more than 100000 nM; in test [9], more than 75400 nM; in test [10], 32800 nM.
